Assay results: patent US20220348662A1, “USE OF FGFR INHIBITORS IN FGFR-GENETICALLY ALTERED CANCERS TO ENHANCE PATIENT RESPONSE TO IMMUNE CHECKPOINT INHIBITORS IN SEQUENTIAL TREATMENT SETTINGS” (JANSSEN PHARMACEUTICA NV, priority 2019, published 2022)

Legend:
[1] = system: CD38+ T cells in peripheral blood; assay: BLC2002 phase 1b immune cell profiling of blood by flow cytometry (T cell activation); assay type: in vivo, human; conditions: FIG. 4c; E8RJ cohort at C1D15, erdafitinib treatment alone (run-in)
Experimental: Blood for immune cell profiling were collected at four time points (C1D1, C1D15, C2D1 and C3D1) and subjected to flow cytometry analysis on a real time basis. T cell activation is quantified as fold increase in the proportions of 1) CD38+CD3, CD38+CD4, or CD38+CD8 T cells out of lymphocytes or CD3 T cell populations, and 2) CD38+ cells out of CD4+ or CD8+T cell populations, compared to the baseline proportion levels at C1D1.
Longitudinal blood samples were analyzed from DL2A (E8J cohort: Erda 8 mg+cetrelimab 240 mg), DL2B (E8RJ cohort: Erda 8 mg 28 days run-in +cetrelimab 240 mg), and DL2 (EJ cohort: Erda 8 mg with the potential dose adjustments to 9 mg depending on phosphate levels measured on C1D15+cetrelimab 240 mg).

[2] = system: advanced urothelial carcinoma; conditions: luminal 1 subtype compared with other bladder cancer subtypes; cited from earlier work

Compound | proportion of CD38+CD8 T cells compared to baseline C1D1 [1] | response rate by bladder cancer molecular subtype [2]
COc1cc(OC)cc(N(CCNC(C)C)c2ccc3ncc(-c4cnn(C)c4)nc3c2)c1 [erdafitinib, N-(3,5-dimethoxyphenyl)-N′-(1-methylethyl)-N-[3-(1-methyl-1H-pyrazol-4-yl)quinoxalin-6-yl]ethane-1,2-diamine] | dramatically increased | 
atezolizumab: checkpoint inhibitor; antibody that blocks the interaction between PD-1 and PD-L1 |  | lowest response rate
nivolumab: checkpoint inhibitor; antibody that blocks the interaction between PD-1 and PD-L1 |  | lowest response rate
